Series [1] has as its system patients with ischemic heart disease. Briefly: Treatment of patients with ischemic heart disease and high blood pressure. The series is classed as in vivo, human. Particulars: six patients, 1 mg every 12 hours intravenously for seven days. The method, then: It is exemplified with the results of six patients. They presented ischemic heart disease, associated with high blood pressure, which produced a state of severity. They were treated in the Intermediate Care Unit (IMCU) of the “Luis Diaz Soto” hospital in Havana. These patients were treated with a pharmaceutical composition comprising the peptide identified as SEQ ID NO: 1, so that a peptide dose of 1 mg every 12 hours was administered intravenously for seven days. In addition, they received the standard therapy needed for these cases.

Series [2] deals with patients with type II diabetes. The series can be described thus: Treatment of patients with decompensated type II diabetes. The series is classed as in vivo, human. The following applies: five patients, 1 mg every 12 hours intravenously for eight days. The method, then: It is exemplified with ten patients who had diabetic decompensation and reached a state of severity, that let them to be treated in the ICU of the hospital “Luis Díaz Soto” in Havana. Five of these patients were treated with a pharmaceutical composition comprising the peptide identified as SEQ ID NO: 1, so that a peptide dose of 1 mg every 12 hours was administered intravenously for eight days. In addition, they received the standard therapy needed for these cases.

The test system of the next series is patients with RA. Particulars: cited from earlier work.

The text below walks through data of patent publication US20260226114A1, “PEPTIDE FOR THE TREATMENT OF DISEASES ASSOCIATED WITH APOLIPOPROTEIN AI OR TRANSTHYRETIN INVOLVEMENT” (CENTRO DE INGENIERÍA GENÉTICA Y BIOTECNOLOGÍA, priority 2022, published 2026).

No end group written: not given here.

“SIDLKDKYKNIGAKLVQLVANNTNEEA [SEQ ID NO: 1]”: the “side effects (clinical and imaging evaluation, blood biochemistry, differential blood count)” value in series [1] and in series [2] was “No side effects were observed” throughout. Further, the safety entry in the series with patients with RA was “proved to be safe”.
